From patent publication US8304393B2, “Epithelial cell growth promoter” (Patent Technology Development Inc., priority 2004, dated 2012)

Tested on: murine HBKs (hair bulb keratinocytes)
Test: HBK growth test (Example 5, AlamarBlue)
Assay type: cell-based, mouse
Conditions: for cell growth effect as compared with that on the control: 4 days culture; for concentration at which significant difference from control could be noted: Dunnett's multiple comparison test, p<0.05
Description: The epithelial cell growth promoters of Examples 1 and 2 and Reference Examples 1 and 2 were subjected to a cell growth test for murine HBKs, respectively. The following culture medium and test medium were used.
DMEM (product code “D-5523”, a product by Sigma)
FBS (product code “10100756”, a product by Cansera International Inc.)
• 10% Penicillin/streptomycin (product code “15140-122”, a product by GIBCO) • 1% (b) Test medium MCDB153 (product code “M7403”, a product by Sigma) Insulin (product code “16634”, bovine, a product by Sigma) • 5 μg/ml Apo-transferrin (product code “T1147”, human, a product by Sigma) • 10 μg/ml EGF (product code “01-101”, murine, a product by Upstate Biotechnology Inc.) • […] BPE (product code “13028-014”, bovine pituitary extract, a product by GIBCO) • 35 μg/ml Water-soluble hydrocortisone (product code “174-00”, a product by NACALAI TESQUE INC.) • 0.5 μg/ml Ethanolamine (product code “012-12455”, a product of Wako Pure Chemical Industries Ltd.) • 100 μM o-phosphorylethanolamine (product code “P0503”, a product by Sigma) • 100 μM
The skin of a 5 day-old mouse was cut with a scalpel into strips of approximately 2-mm-wide skin slices, which were in turn immersed in a solution prepared by dissolving dispase (lot No. 0101, a product by GODO SHUSEI CO.) at a proportion of 500 U/ml in DMEM (product code “D-5523”, a product by Sigma) containing FBS (product code “10100756”, a product by Cansera International Inc.) in a concentration of 5%, and then kept standing at 4° C. for 16 hours. Subsequently, the epidermis was ablated and removed with tweezers from the skin slices to collect only dermis tissues. The thus obtained dermis tissues were immersed in PBS (−) (product code “P-4417”, a product by Sigma) and cut into strips with opthalmological scissors. The thus obtained strips were immersed in a solution prepared by dissolving collagenase (lot No. 001014W, a product by Nitta Gelatin Inc.) in a concentration of 0.2% in DMEM containing FBS in a concentration of 5%, and then digested at 37° C. for 1 hour. After centrifugation at 1000 rpm for 5 minutes, the supernatant was removed, and the residue was supplemented with PBS (−) and gently pipetted to prepare a dermis suspension.
For separating dermal fibroblasts and hair bulbs, the dermis suspension was kept standing for 15 minutes to precipitate only the hair bulbs. The hair bulbs obtained by repeating the “standing to precipitation” procedure three times were immersed in a solution prepared by dissolving, in 2.65 mM EDTA aqueous solution, trypsin in a concentration of 0.25%, and then treated at 37° C. for 5 minutes to prepare a dispersion solution of HBKs.
Next, this dispersion solution was centrifuged at 1000 rpm for 5 minutes. After this centrifugation, the supernatant was removed. The thus obtained HBKs were dispersed in a culture medium, then inoculated into a collagen-coated 96-well microplate, and cultured at 37° C. in an atmosphere containing 5% CO2.
The isoleucyl-glycyl-serine (hereinafter, abbreviated to IGS), prolyl-isoleucyl-glycine (hereinafter, abbreviated to PIG), prolyl-isoleucyl-glycyl-serine (SEQ ID NO: 2) (hereinafter, abbreviated to PIGS), and glycyl-prolyl-isoleucyl-glycine (SEQ ID NO: 1) (hereinafter, abbreviated to GPIG) obtained in Examples 1 and 2 and Reference Examples 1 and 2 were separately dissolved in a test media to prepare 6 types of sample solutions each in a concentration of 0.3 μM, 1 μM, 3 μM, 10 μM, 30 μM, and 100 μM. Only a test medium was used as a control.
After 24 hours from the inoculation of the cells, the culture solutions were removed, and the cultured cells were washed with an MCDB153 solution. Each of the above-mentioned sample solutions was added to the cultured cell at 100 μl/well and cultured at 37° C. in an atmosphere containing 5% CO2. […]

Compound	cell growth effect as compared with that on the control (0.3 μM)	cell growth effect as compared with that on the control (1 μM)	cell growth effect as compared with that on the control (3 μM)	cell growth effect as compared with that on the control (10 μM)	cell growth effect as compared with that on the control (30 μM)	cell growth effect as compared with that on the control (100 μM)	concentration at which significant difference from control could be noted
CC[C@H](C)[C@H](N)C(=O)NCC(=O)N[C@@H](CO)C(=O)O (racemic) [IGS, isoleucyl-glycyl-serine]	98%	103%	106%	124%	134%	133%	≥ 10 µM
CC[C@H](C)[C@H](NC(=O)[C@@H]1CCCN1C(=O)CN)C(=O)NCC(=O)O (racemic) [GPIG, glycyl-prolyl-isoleucyl-glycine]	105%	108%	118%	133%	134%	138%	≥ 0.3 µM
CC[C@H](C)[C@H](NC(=O)[C@@H]1CCCN1)C(=O)NCC(=O)N[C@@H](CO)C(=O)O (racemic) [PIGS, prolyl-isoleucyl-glycyl-serine]	104%	103%	108%	110%	127%	133%	≥ 3 µM
CC[C@H](C)[C@H](NC(=O)[C@@H]1CCCN1)C(=O)NCC(=O)O (racemic) [PIG, prolyl-isoleucyl-glycine]	101%	103%	113%	132%	131%	134%	≥ 1 µM
